The text below walks through data of ChEMBL document CHEMBL4334438, “Discovery of novel glycogen synthase kinase-3α inhibitors: Structure-based virtual screening, preliminary SAR and biological evaluation for treatment of acute myeloid leukemia” (Eur J Med Chem, 2019).

The species entered for one series is Homo sapiens. In words: Inhibition of human activated Tec F514V mutant (174 to end residues) assessed as residual activity at 1 uM using EFPIYDFLPAKKK as substrate measured after 40 mins in presence of [gamma33P]ATP by scintillation counting method relative to control.
Series [1] concerns the target MAP kinase-activated protein kinase 3 (Homo sapiens) (UniProt Q16644). In words: Inhibition of recombinant human MAPKAPK3 (2 to end residues) assessed as residual activity at 1 uM using KKLNRTLSVA as substrate incubated for 40 mins in presence of [gamma-33ATP by scintillation counting based radiometry assay relative to control.
Series [2] addresses Proto-oncogene tyrosine-protein kinase receptor Ret (Homo sapiens) (UniProt P07949). In words: Inhibition of recombinant human Ret (658 to end residues) assessed as residual activity at 1 uM using KKKSPGEYVNIEFG as substrate measured after 40 mins in presence of [gamma33P]ATP by scintillation counting method relative to control.
The target in the next series is GSK-3beta (H350L mutant) (Homo sapiens, UniProt P49841, H350L). In words: Inhibition of human GSK-3beta H350L mutant (2 to end residues) at 10 uM using phospho GS2 peptide as substrate after 40 mins by [gamma-33ATP] radiometric assay relative to control. The following applies: human GSK-3beta H350L mutant enzyme (residues 2 to end), probe phospho GS2 peptide.
The target of series [3] is Inhibitor of nuclear factor kappa-B kinase subunit beta (Homo sapiens) (UniProt O14920). In words: Inhibition of full length human IKKbeta assessed as residual activity at 1 uM using peptide as substrate after 40 mins by [gamma-33ATP] radiometric assay relative to control.
In series [4] the target is Fibroblast growth factor receptor 3 (Homo sapiens) (UniProt P22607). In words: Inhibition of recombinant human FGFR3 (447 to 761 residues) assessed as residual activity at 1 uM using poly(Glu, Tyr) 4:1 as substrate at 40 mins in presence of [gamma-33ATP] by scintillation counting based radiometry assay relative to control.
Chain of Fibroblast growth factor receptor 3 (Homo sapiens) (P22607 23-806 limits assumed): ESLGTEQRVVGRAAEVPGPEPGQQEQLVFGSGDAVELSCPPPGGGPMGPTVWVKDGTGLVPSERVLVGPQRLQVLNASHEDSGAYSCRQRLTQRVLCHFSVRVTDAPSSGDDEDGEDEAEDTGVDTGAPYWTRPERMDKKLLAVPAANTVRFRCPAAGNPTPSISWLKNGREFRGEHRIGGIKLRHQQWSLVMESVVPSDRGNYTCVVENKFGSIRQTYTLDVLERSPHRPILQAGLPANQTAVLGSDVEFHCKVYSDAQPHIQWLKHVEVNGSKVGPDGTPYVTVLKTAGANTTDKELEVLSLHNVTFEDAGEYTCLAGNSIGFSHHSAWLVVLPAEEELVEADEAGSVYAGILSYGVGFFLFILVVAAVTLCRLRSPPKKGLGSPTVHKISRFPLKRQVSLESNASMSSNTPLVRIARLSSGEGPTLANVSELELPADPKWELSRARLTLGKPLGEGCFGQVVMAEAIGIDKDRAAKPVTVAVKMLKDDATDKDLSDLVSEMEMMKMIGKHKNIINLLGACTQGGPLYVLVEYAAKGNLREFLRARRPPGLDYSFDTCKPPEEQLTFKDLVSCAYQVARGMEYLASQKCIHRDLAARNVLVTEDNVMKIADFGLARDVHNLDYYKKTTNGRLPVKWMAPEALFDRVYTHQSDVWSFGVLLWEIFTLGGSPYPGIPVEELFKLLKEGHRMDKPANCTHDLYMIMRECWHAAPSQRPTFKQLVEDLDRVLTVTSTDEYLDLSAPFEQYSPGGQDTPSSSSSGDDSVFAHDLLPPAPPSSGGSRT
The target in series [5] is Dual specificity protein kinase CLK3 (Homo sapiens) (UniProt P49761). Put plainly: Inhibition of recombinant full length human CLK3 assessed as residual activity at 1 uM using ERMRPRKRQGSVR as substrate incubated 40 mins in presence of [gamma-33ATP] by scintillation counting based radiometry assay relative to control.
Chain of Dual specificity protein kinase CLK3 (Homo sapiens) (P49761 whole entry, looked up, the tested form may be a part): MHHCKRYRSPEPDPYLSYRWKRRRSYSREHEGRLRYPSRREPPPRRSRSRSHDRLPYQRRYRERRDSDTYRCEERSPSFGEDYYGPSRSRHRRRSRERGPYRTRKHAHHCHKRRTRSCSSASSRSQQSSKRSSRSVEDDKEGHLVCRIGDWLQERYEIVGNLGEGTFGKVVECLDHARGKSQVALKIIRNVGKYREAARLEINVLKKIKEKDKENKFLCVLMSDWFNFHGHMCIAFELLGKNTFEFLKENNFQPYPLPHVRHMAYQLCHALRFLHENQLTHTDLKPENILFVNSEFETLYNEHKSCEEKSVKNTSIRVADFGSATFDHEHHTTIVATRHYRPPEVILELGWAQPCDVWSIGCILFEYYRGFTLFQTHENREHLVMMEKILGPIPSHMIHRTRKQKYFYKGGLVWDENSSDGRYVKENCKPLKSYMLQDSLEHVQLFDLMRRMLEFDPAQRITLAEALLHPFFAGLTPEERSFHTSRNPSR
For series [6], the system named is Fibroblast growth factor receptor 2 (Homo sapiens), P21802 [N549H]. Put plainly: Inhibition of recombinant human FGFR2 N549H mutant (456 to 770 residues) assessed as residual activity at 1 uM using GGEEEEYFELVKKKK as substrate at 40 mins in presence of [gamma-33ATP] by scintillation counting based radiometry assay relative to control.
Series [7] addresses LIM domain kinase 1 (Homo sapiens) (UniProt P53667). Put plainly: Inhibition of recombinant human LIMK1 (285 to 638 residues) assessed as residual activity at 1 uM using cofilin as substrate after 40 mins in presence of [gamma-33ATP] by scintillation counting based radiometry assay relative to control.
Series [8] addresses Activin receptor type-1B (Homo sapiens) (UniProt P36896). Put plainly: Inhibition of human ALK4 (150 to end residues) assessed as residual activity at 1 uM using casein as substrate incubated for 40 mins in presence of [gamma-33ATP] by scintillation counting based radiometry assay relative to control.
The target in series [9] is Mitogen-activated protein kinase kinase kinase 3 (Homo sapiens) (UniProt Q99759). In words: Inhibition of recombinant full length human MEKK3 assessed as residual activity at 1 uM using myelin basic protein as substrate incubated for 120 mins in presence of [gamma-33ATP by scintillation counting based radiometry assay relative to control.
The target of series [10] is Tyrosine-protein kinase JAK3 (Homo sapiens) (UniProt P52333). Put plainly: Inhibition of human JAK3 (781 to end residues) assessed as residual activity at 1 uM using GGEEEEYFELVKKKK as substrate after 40 mins by [gamma-33ATP] radiometric assay relative to control.
Series [11] has as its target Calcium/calmodulin-dependent protein kinase type II subunit delta (Homo sapiens) (UniProt Q13557). In words: Inhibition of recombinant full length human CaMK2delta assessed as residual activity at 1 uM […] incubated for 40 mins in presence of [gamma-33ATP] by scintillation counting based radiometry assay relative to control.
Series [12] deals with Serine/threonine-protein kinase 10 (Homo sapiens) (UniProt O94804). In words: Inhibition of recombinant human LOK (1 to 348 residues) assessed as residual activity at 1 uM using RLGRDKYKTLRQIRQ as substrate after 40 mins in presence of [gamma-33ATP] by scintillation counting based radiometry assay relative to control.
The target in series [13] is Proto-oncogene tyrosine-protein kinase Src (Homo sapiens) (UniProt P12931). In words: Inhibition of human Src (1 to 530 residues) assessed as residual activity at 1 uM using GGEEEEYFELVKKKK as substrate measured after 40 mins in presence of [gamma33P]ATP by scintillation counting method relative to control.
The test system of series [14] is Fibroblast growth factor receptor 1 (Homo sapiens), P11362 [V561M]. In words: Inhibition of recombinant human FGFR1 V561M mutant (456 to 765 residues) assessed as residual activity at 1 uM using GGEEEEYFELVKKKK as substrate at 40 mins in presence of [gamma-33ATP] by scintillation counting based radiometry assay relative to control.
Series [15] concerns the target Aurora kinase B (Homo sapiens) (UniProt Q96GD4). Put plainly: Inhibition of recombinant full length human Aurora B assessed as residual activity at 1 uM using AKRRRLSSLRA as substrate incubated for 40 mins in presence of [gamma-33ATP] by scintillation counting based radiometry assay relative to control.
Series [16] has as its target Serine/threonine-protein kinase PLK3 (Homo sapiens) (UniProt Q9H4B4). In words: Inhibition of recombinant human Plk3 (19 to 301 residues) assessed as residual activity at 1 uM using casein as substrate measured after 40 mins in presence of [gamma33P]ATP by scintillation counting method relative to control.
The target in series [17] is Serine/threonine-protein kinase MRCK alpha (Homo sapiens) (UniProt Q5VT25). In words: Inhibition of recombinant human MRCKalpha (1 to 473 residues) assessed as residual activity at 1 uM using KKRNRTLTV as substrate measured after 40 mins in presence of [gamma33P]ATP by scintillation counting method relative to control.
In series [18] the target is Serine/threonine-protein kinase MRCK beta (Homo sapiens) (UniProt Q9Y5S2). In words: Inhibition of recombinant human MRCKbeta (1 to 473 residues) assessed as residual activity at 1 uM using KKRNRTLTV as substrate measured after 40 mins in presence of [gamma33P]ATP by scintillation counting method relative to control.
Series [19] has as its target Serine/threonine-protein kinase STK11 (Homo sapiens) (UniProt Q15831). Put plainly: Inhibition of recombinant human LKB1 assessed as residual activity at 1 uM using LSNLYHQGKFLQTFCGSPLYRRR as substrate after 40 mins in presence of [gamma-33ATP] by scintillation counting based radiometry assay relative to control.

Chain of Proto-oncogene tyrosine-protein kinase receptor Ret (Homo sapiens) (P07949 whole entry, the tested form may be a part): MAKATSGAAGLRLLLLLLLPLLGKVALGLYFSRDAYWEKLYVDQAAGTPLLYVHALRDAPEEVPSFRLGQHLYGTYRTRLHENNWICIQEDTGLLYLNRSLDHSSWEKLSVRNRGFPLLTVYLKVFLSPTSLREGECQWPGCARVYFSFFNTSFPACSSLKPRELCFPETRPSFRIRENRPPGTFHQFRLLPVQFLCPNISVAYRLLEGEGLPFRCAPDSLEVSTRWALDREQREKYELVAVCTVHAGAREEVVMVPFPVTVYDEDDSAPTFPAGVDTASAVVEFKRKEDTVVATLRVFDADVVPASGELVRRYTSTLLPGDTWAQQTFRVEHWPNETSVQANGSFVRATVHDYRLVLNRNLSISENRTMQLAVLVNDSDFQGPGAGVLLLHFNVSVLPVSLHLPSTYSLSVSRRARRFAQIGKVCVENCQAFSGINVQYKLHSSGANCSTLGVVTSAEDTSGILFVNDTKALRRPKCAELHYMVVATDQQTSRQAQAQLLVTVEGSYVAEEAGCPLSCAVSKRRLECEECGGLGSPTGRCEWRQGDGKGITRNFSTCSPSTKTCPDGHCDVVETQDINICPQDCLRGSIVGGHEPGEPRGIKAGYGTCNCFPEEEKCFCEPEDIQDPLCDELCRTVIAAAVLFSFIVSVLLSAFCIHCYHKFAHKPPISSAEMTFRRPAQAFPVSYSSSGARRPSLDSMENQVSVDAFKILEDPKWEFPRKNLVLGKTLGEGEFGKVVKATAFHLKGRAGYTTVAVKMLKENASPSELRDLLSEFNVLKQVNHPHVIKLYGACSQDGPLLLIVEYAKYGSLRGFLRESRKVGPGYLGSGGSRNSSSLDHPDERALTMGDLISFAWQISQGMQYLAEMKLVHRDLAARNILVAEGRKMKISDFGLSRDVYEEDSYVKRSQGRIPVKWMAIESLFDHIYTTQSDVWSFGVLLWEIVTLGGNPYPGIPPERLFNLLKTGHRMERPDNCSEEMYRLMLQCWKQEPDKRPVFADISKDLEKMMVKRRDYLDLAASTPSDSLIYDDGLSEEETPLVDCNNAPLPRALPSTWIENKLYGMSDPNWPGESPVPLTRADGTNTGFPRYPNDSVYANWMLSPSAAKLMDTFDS
Chain of Aurora kinase B (Homo sapiens) (Q96GD4 whole entry, the tested form may be a part): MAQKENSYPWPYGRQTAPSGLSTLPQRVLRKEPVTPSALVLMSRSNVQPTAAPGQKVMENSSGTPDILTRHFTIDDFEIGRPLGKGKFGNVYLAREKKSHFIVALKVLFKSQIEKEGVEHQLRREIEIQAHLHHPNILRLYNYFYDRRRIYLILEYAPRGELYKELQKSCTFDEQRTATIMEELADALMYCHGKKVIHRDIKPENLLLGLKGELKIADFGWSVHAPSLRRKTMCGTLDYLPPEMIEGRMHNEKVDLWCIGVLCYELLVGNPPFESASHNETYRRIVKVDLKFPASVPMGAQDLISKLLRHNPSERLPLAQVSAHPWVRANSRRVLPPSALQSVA
Chain of Activin receptor type-1B (Homo sapiens) (P36896 whole entry): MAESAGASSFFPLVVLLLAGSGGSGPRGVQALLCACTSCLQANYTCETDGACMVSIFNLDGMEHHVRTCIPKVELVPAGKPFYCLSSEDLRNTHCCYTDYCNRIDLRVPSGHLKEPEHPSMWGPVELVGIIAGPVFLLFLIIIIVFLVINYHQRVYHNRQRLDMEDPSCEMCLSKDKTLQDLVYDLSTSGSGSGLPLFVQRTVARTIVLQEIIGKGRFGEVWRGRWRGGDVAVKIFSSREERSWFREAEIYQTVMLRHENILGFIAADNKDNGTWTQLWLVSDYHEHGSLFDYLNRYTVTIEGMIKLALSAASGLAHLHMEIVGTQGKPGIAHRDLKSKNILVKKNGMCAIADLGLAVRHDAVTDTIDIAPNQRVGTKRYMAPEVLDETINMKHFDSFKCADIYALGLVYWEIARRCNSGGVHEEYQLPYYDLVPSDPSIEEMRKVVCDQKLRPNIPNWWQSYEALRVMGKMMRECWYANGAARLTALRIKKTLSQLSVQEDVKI
Chain of Serine/threonine-protein kinase STK11 (Homo sapiens) (Q15831 whole entry): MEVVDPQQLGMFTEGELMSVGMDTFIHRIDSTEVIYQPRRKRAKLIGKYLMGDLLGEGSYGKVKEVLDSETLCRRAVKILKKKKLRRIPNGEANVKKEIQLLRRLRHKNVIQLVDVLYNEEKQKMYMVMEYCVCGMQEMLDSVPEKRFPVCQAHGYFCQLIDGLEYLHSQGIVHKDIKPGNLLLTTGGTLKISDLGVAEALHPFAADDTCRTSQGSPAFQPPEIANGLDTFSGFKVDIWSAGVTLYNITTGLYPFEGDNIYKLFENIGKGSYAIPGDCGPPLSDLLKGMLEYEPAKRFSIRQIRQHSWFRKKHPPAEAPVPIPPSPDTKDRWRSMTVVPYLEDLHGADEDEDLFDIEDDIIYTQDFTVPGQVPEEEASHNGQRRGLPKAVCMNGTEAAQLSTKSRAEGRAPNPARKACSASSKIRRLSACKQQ
Chain of LIM domain kinase 1 (Homo sapiens) (P53667 whole entry, looked up, the tested form may be a part): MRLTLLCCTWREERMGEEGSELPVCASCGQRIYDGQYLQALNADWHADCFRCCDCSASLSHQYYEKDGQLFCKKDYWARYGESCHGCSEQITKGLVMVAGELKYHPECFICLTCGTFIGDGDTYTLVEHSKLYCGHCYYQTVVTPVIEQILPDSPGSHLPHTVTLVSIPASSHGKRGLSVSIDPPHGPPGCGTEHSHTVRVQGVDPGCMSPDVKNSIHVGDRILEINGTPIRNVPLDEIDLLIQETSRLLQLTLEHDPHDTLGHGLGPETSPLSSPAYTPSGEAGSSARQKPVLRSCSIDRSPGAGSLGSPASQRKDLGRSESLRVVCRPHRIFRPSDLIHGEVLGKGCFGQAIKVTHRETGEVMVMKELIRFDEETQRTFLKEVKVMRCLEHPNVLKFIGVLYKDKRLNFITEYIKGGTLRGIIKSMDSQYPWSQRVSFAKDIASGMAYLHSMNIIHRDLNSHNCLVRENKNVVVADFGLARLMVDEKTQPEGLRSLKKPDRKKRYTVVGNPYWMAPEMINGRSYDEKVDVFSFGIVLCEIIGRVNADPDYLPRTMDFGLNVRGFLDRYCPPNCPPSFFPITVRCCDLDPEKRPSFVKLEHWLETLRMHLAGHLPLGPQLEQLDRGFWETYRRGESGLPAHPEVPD
Chain of Calcium/calmodulin-dependent protein kinase type II subunit delta (Homo sapiens) (Q13557 whole entry, the tested form may be a part): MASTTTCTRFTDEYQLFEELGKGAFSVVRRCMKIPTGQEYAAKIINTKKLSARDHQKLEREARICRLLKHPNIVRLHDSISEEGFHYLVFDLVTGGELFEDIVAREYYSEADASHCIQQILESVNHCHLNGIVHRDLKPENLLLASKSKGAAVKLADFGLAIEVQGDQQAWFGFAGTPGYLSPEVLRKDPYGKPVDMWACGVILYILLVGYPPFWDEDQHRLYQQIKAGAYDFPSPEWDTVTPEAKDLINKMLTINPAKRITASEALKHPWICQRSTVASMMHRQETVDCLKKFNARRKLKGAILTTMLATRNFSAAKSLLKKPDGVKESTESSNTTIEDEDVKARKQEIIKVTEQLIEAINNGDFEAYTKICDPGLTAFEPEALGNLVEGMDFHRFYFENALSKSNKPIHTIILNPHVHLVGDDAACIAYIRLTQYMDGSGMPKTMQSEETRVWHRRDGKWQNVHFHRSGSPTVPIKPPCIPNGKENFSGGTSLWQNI

What is called inhibition is the percentage by which the read-out fell short of the control. Read a low inhibition as little suppression. As for `C=CCOC(=O)c1cc(-c2ccc(/C=C3/NC(=S)NC3=O)o2)ccc1Cl`, the Activity in the series listed under Homo sapiens was 99%; in series [1], 96%; in series [2], 102%; in [3], 129%; in series [4], 106%; in series [5], 85%. Further, the Activity in series [6] was determined as 100%; in [7] it was 96%; in series [8], 105%; in series [9], 96%; in [10], 104%; in series [11], 65%. Moreover, the Activity in [12] worked out at 95%; in [13] it was 92%; in series [14], 102%; in series [15], 110%; in [16], 98%; in [17], 98%. In addition, the Activity in series [18] amounted to 110%; in series [19] it was 93%. At GSK-3beta (H350L mutant), this compound returned an inhibition at 40 min, 10 µM of 92%.

As to `N=C1NC(=O)/C(=C\c2ccc(-c3cccc([N+](=O)[O-])c3)o2)S1`, the Activity amounted to 96% in the series filed under Homo sapiens; 97% in series [1]; 92% in series [2]; 62% in series [3]; 107% in series [4]; 92% in series [5]. Moreover, the Activity in [6] turned out to be 96%; in series [7], 100%; in series [8] it was 109%; in series [9], 98%; in series [10], 102%; in [11], 92%. Further, the Activity came to 95% in series [12]; 74% in series [13]; 91% in series [14]; 94% in series [15]; 108% in series [16]; 103% in [17]. Also, the Activity in series [18] stood at 94%; in series [19], 37%. Further, at GSK-3beta (H350L mutant), the inhibition at 40 min, 10 µM was 95%.
